Laboratory results reported in patent US10227332B2, “T-type calcium channel modulator and uses thereof” (UTI Limited Partnership, priority 2014, dated 2019).

Legend:
[1] = tested on: wild-type mice, formalin-induced pain; experiment: Formalin test (acute nociceptive and inflammatory phases); format: in vivo, mouse; details: for inhibition of pain response time, first phase: formalin first phase; for inhibition of pain response time, second phase: formalin second phase
Source text: (§1) During experiments, all efforts were made to minimize animal suffering according to the policies and recommendations of the International Association for the Study of Pain and all protocols used were approved by the Institutional Animal Care and Use Committee. For all experiments, either adult male C57BL/6J (wild-type) or CACNA1H knockout (Cav3.2 null) mice (20-25 g) purchased from Jackson Laboratories were used. There were a maximum of five mice per cage (30×20×15 cm) and access to food and water was unlimited. Temperature was kept at 23±1° C. on a 12 h light/dark cycle (lights on at 7:00 a.m.). Intraperitoneal (i.p.) injections of drugs were a constant volume of 10 ml/kg body weight. Intrathecal (i.t.) injections used volumes of 10 μl and were performed using the method described previously and carried out routinely in our laboratory. All drugs were dissolved in 1% or less DMSO, whereas control animals received PBS+1% DMSO. For each test, a different group of mice were used and only one experiment per mouse was performed.
Before experiments were performed, mice were left to acclimatize for at least 60 minutes. Animals were then injected intraplantarily (i.pl.) in the ventral surface of the right hindpaw with 20 μl of a formalin solution (1.25%) made up in PBS. Following i.pl. injections of formalin, individual animals were placed immediately into observation chambers and monitored from 0-5 min (acute nociceptive phase) and 15-30 min (inflammatory phase).

[2] = tested on: mice with partial sciatic nerve injury; experiment: Partial sciatic nerve injury (PNI)-induced neuropathic pain, mechanical hyperalgesia; format: in vivo, mouse; details: 30 mg/kg, i.p.; after treatment
Source text: as §1
Before surgery, mice were anaesthetised with isoflurane (5% induction, 2.5% maintenance). […] Mechanical hyperalgesia was then evaluated in a time-dependant manner.
Mechanical hyperalgesia responses were recorded immediately before the surgeries (baselines), 14 days after the surgeries (0) and at various time points (0.5, 1, 2, 3 h) after treatment. […]

[3] = tested on: wild type mice; experiment: Open-field test (locomotor activity); format: in vivo, mouse; details: 30 mg/kg, i.p.
Source text: as §1
Briefly, the apparatus consisted of a wooden box measuring 40×60×50 cm with a glass front wall. The floor was divided into 12 equal squares and the entire apparatus was placed in a sound free room. Animals were placed in the rear left square and left to explore freely and the number of squares crossed with all paws (crossing) in a 6 minute timeframe was counted. […]

[4] = biological target: hCB2 (Homo sapiens (Human), UniProt P34972); experiment: Radioligand competitive binding assay, CB2 receptor (NIMH PDSP); details: means of three experiments run in triplicate
Source text: (§2) The compounds was screened using whole-cell voltage clamp techniques for their ability to mediate tonic block of transiently expressed hCav3.2 channels (FIG. 1). Next, radioligand binding assays were used to assess the affinities of these compounds for both CB1 and CB2 receptors (Table 1).
(§3) CB1 and CB2 radioligand binding data were obtained using National Institute of Mental Health (NIMH) Psychoactive Drug Screening Program (PDSP) resources as described earlier.

[5] = biological target: rCB1 (Rattus norvegicus (Rat), UniProt P20272); experiment: Radioligand competitive binding assay, CB1 receptor (NIMH PDSP); details: means of three experiments run in triplicate
Source text: as §2, §3

[6] = 1-10 μg/i.t., 20 minutes before
[7] = 10-100 mg/kg, i.p., 30 minutes prior

| Structure (SMILES) | inhibition of pain response time, first phase [1, 6] [%] | inhibition of pain response time, second phase [1, 6] [%] | inhibition of pain response time, first phase [1, 7] [%] | inhibition of pain response time, second phase [1, 7] [%] | duration of attenuation of mechanical hyperalgesia [2] [h] | locomotor activity in open-field test [3] | locomotor activity in open-field test ([3]; listed as compound 9) | hCB2 Ki [4] | rCB1 Ki [5] |
| --- | --- | --- | --- | --- | --- | --- | --- | --- | --- |
| CCCCCn1c2ccccc2c2cc(C(=O)NCC3CCN(CC(=O)NC(C)(C)C)CC3)ccc21 [Compound 9, N-((1-(2-(tert-butylamino)-2-oxoethyl)piperidin-4-yl)methyl)-9-pentyl-9H-carbazole-3-carboxamide] | 61±8 | 76±10 | 47±2 | 66±48 | > 3 | no significant motor deficits | did not significantly affect locomotor activity | – | – |
| CCCCCn1c2ccccc2c2cc(C(=O)NCC3CCNCC3)ccc21 [Compound 7, 9-Pentyl-N-(piperidin-4-ylmethyl)-9H-carbazole-3-carboxamide] | – | – | – | – | – | – | – | n.b. | n.b. |
